The values below are quoted from earlier work in patent publication US20100015044A1, “Methods and compositions for diagnosis of iga-and igm-mediated kidney diseases” (priority 2005, published 2010).

Data set [1] concerns IgG. Conditions: transfection studies in leukocytes.
For data set [2], the system named is human IgA.
The test system of data set [3] is human rheumatoid factor.
Data set [4] deals with murine IgM (Mus musculus, UniProt P01872).
For data set [5], the system named is other immunoglobulins.
Data set [6] has as its system IgA.
Data set [7] addresses IgM (Homo sapiens, UniProt P01871).

Chain of murine IgM (P01872 whole entry, other chains not shown): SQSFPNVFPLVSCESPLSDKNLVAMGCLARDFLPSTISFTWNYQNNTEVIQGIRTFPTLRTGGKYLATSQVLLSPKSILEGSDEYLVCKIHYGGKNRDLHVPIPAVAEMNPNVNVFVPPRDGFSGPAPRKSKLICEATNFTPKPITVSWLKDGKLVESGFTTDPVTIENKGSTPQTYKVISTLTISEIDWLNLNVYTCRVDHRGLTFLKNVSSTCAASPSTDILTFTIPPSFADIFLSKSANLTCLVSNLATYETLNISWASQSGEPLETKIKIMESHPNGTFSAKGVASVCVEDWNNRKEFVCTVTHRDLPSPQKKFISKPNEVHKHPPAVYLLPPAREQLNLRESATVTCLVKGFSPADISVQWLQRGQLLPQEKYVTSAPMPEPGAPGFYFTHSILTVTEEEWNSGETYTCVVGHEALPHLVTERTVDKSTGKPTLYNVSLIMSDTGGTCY
Chain of murine IgM (P01592 23-159 partner limits assumed, other chains not shown): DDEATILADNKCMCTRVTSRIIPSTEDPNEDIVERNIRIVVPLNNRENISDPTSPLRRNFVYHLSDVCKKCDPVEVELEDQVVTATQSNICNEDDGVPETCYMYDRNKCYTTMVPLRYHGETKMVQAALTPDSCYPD
Chain of IgM (P01871 1-433 limits assumed): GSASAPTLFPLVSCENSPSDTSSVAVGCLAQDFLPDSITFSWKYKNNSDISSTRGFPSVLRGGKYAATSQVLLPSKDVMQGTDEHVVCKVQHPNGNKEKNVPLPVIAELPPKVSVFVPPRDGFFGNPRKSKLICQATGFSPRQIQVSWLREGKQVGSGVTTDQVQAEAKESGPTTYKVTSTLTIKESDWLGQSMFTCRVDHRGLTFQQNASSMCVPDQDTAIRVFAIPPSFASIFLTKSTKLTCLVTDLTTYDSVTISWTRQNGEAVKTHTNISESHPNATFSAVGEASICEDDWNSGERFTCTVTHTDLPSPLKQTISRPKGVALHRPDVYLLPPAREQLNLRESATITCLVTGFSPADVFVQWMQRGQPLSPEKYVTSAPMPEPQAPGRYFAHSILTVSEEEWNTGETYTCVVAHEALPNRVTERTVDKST
Chain of IgM (P01591 23-159 partner): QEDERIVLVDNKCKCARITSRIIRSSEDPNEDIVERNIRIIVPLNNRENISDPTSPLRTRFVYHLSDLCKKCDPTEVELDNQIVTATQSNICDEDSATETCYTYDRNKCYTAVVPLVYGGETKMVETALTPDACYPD

On to “FcαR1: human membrane glycoprotein Fc receptor for IgA”, for which the “binding to IgG” value in data set [1] is “does not bind IgG”.
In the case of “Sap: 50-residue synthetic peptide including the 29-residue IgA-binding region of Sir22, with C-terminal cysteine (YYALSDAKEEEPRYKALRGENQDLREKERKYQDKIKKLEEKEKNLEKKSC; Sap)”, the “binding to human IgA” value in data set [2] is “specifically binds”.
On to “YDWIPSSAW (IgM binding peptide) [YDWIPS SAW]”, for which, in data set [3], the “inhibition of human rheumatoid factor induced agglutination of IgG-coated latex beads” value is recorded as “inhibits”. Moreover, the “binding to murine IgM” value in data set [4] is on record as “high affinity”. The “binding to other immunoglobulins” value in data set [5] is “no binding abilities”.

B1: human Fcα/μ receptor: human receptor constitutively expressed on the majority of B-lymphocytes and macrophages (protein, listed as Homo sapiens)
chain: MDGEATVKPGEQVPLWTHGWPPDDPSPSFAAGSSFALPQKRPHPRWLWEGSLPSRTHLRAMGTLRPSSPLCWREESSFAAPNSLKGSRLVSGEPGGAVTIQCHYAPSSVNRHQRKYWCRLGPPRWICQTIVSTNQYTHHRYRDRVALTDFPQRGLFVVRLSQLSPDDIGCYLCGIGSENNMLFLSMNLTISAGPASTLPTATPAAGELTMRSYGTASPVANRWTPGTTQTLGQGTAWDTVASTPGTSKTTASAEGRRTPGATRPAAPGTGSWAEGSVKAPAPIPESPPSKSRSMSNTTEGVWEGTRSSVTNRARASKDRREMTTTKADRPREDIEGVRIALDAAKKVLGTIGPPALVSETLAWEILPQATPVSKQQSQGSIGETTPAAGMWTLGTPAADVWITSMEAASGEGSAAGDLDAATGDRGPQATLSQTPAVGPWGPPGKESSVKRATCPGLSTLKEIKVSAVLTQNPHSLLCVSAAQEAERVTLIQMTHFLEVNPQADQLPHVERKMLQDDSLPAGASLTAPERNPGP
As for B1, the “binding to IgA” value in data set [6] is reported as “intermediate to high affinity”. In addition, the “binding to IgM” value in data set [7] was “intermediate to high affinity”.
